Assay [1] concerns the target B-subunit of cholera toxin (CTB) (Vibrio cholerae serotype O1, UniProt P01556).
In another assay the test system is nar-3, a rotavirus toxin. Nature of the assay: Binding to rotavirus toxin nar-3. The following applies: GD3 from Folch LP vs UP.
The next assay deals with rotavirus particles. As to the kind of experiment: Binding to rotavirus particles.

B-subunit of cholera toxin (CTB), sequence (P01556 22-124 limits assumed): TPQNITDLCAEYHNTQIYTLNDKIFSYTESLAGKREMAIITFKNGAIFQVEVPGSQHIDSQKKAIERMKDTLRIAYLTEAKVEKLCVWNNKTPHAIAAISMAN

Take GD1a: the “binding of cholera toxin subunit B (CTB)” value in assay [1] is reported as “not capable of binding the toxin”.
As to GM1 [bovine-brain GM1 species], the “binding of cholera toxin subunit B (CTB)” value in assay [1] is listed as “bind CTB”.
In the case of GD3 [GD3 isolated from the aqueous UP], in the assay with nar-3, a rotavirus toxin, the “binding to nar-3” value was “did not bind to this toxin”.
On the same count and under the same terms, with “GD3 [GD3 species isolated from the organic LP]” the entry was “bound to nar-3”.
In the case of “GM1 [GM1 isolated from buffalo milk serum]”, the “binding of cholera toxin subunit B (CTB)” value in assay [1] is given as “binds to cholera toxin subunit B”.
In the case of GM3 [GM3 species], the “binding of rotavirus particles” value in the assay with rotavirus particles is on record as “bind rotavirus particles”.

(Values after US20050107311A1, “Buffalo milk gangliosides” (priority 2001, published 2005).)
